Reference: patent US20230372318A1, “METHODS FOR TREATING A SUBJECT HAVING MULTIPLE SYSTEM ATROPHY” (Theravance Biopharma R&D IP, LLC, priority 2022, published 2023)

How the values were obtained:
plasma protein = assay: Plasma protein binding, rat; assay type: in vitro ADME
NET = target: T1, NET (Rattus norvegicus, UniProt Q63380); assay: Ex vivo transporter occupancy in rat spinal cord (NET)
T1 construct: from tissue; host or cells: lumbar spinal cord of orally dosed male Sprague Dawley rats
Method: Adult male Sprague Dawley rats (Charles River) were housed under controlled laboratory conditions (temperature at 21±1° C.) on a 12:12 hour light-dark cycle. Animals were given free access to food and water upon arrival to the facility and animals were acclimatized to their holding room for at least 48 hours. Animals were fasted but allowed free access to water for 15-18 hours prior to dosing.
Rats (n=6/timepoint/dose level) received a single oral dose of 4-[2-(2,4,6-trifluorophenoxymethyl)phenyl]piperidine (0.3, 1, 5, 10, 30, and 60 mg/kg) and were euthanized by decapitation at specified time points (0.5, 2, 4, 6, and 8 hr for 5 mg/kg dose level; 2 hr for 0.3, 1, 10, 30, and 60 mg/kg dose levels) post-administration. Spinal cords were dissected for ex vivo transporter occupancy and PK assessments from the same animals. The spinal cord was harvested by hydraulic extrusion using phosphate-buffered saline, and the lumbar segment dissected and frozen on dry ice. The remaining spinal cord segments were collected and homogenized in water (25% w/w) for PK analysis. All samples were stored at −80° C. until analysis.
A kinetic radioligand binding assay was used to determine NET and SERT occupancy in rat spinal cord, as described previously in Bourdet et al., J. Pharm. Exp. Ther. (2012) 341:137-145. PK/PD parameters were estimated by a compartmental modeling approach (WinNonlin Version 5.0.1, Pharsight Corporation). One- and two-compartment PK models with first-order absorption and elimination were evaluated. The one-compartment model was selected. The pharmacodynamics model was an effect compartment Emax model linked directly to the central PK compartment (WinNonlin PK Model 3, PD Model 101). Selection of models was based upon best fit in terms of visual inspection, Akaike Information Criteria, and weighted residual sum of squares using the Gauss-Newton minimization method.

[1] = human, cited from earlier work

T1 sequence (Q63380 1-617): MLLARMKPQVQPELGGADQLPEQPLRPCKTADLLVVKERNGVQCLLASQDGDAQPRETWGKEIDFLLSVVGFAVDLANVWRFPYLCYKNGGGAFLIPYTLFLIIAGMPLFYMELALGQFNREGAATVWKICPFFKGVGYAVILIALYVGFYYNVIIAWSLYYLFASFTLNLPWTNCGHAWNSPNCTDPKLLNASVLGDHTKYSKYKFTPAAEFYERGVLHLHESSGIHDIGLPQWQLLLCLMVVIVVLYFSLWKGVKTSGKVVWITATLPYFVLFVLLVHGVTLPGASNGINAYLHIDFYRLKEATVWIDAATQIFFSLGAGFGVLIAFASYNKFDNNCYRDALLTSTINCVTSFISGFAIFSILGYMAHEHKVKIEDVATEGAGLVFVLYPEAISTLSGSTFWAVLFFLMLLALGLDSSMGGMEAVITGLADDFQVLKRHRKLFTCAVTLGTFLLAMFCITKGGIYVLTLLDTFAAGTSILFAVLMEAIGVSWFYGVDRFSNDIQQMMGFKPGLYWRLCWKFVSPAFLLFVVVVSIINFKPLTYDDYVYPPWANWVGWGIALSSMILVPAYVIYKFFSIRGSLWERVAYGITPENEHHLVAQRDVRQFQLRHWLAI

Fc1cc(F)c(OCc2ccccc2C2CCNCC2)c(F)c1 [Ampreloxetine, 4-[2-(2,4,6-trifluorophenoxymethyl)phenyl]piperidine]
Plasma protein binding (plasma protein): 90.2%
EC50 (NET; projected from rat EC50 accounting for species differences in plasma protein binding): 17.1 nM
EC50, plasma concentration associated with 50% NET occupancy (NET; rat spinal cord, oral dose): 0.0117 µg/mL
Emax, maximal NET occupancy in spinal cord (NET; rat, single oral dose, effect compartment PK/PD model): 92.0 % occupancy
keo, first-order equilibration rate constant, NET (NET; rat, central PK compartment to effect compartment): 1.78 h⁻¹
Dose proportionality of Cmax and AUC ([1]; administered doses): linear with near dose proportional exposure
Time to steady state ([1]; once daily dosing): ≤ 6 days
